{
  "source": "paper PMC11295173",
  "about": "(Journal of the American Chemical Society, 2024)",
  "key": {"[1]": {"test": "Circular dichroism (CD)", "format": "physicochemical", "conditions": "bandwidth of 1 nm; buffer spectrum subtracted as blank"}, "[2]": {"format": "binding", "parameters": "unit not given here", "conditions": "AuNPs (1–20 µg mL−1); peptide probe 2 × 10−6 M; PBS (0.01 M, pH 7.4), 2 min, excitation 520 nm; double reciprocal linear fitting"}, "[3]": {"format": "binding", "parameters": "unit not given here", "conditions": "GO (1–15 µg mL−1); peptide probe 2 × 10−6 M; PBS (0.01 M, pH 7.4), 2 min, excitation 520 nm; double reciprocal linear fitting"}, "[4]": {"format": "binding", "parameters": "unit not given here", "conditions": "2D MnO2 (1–12 µg mL−1); peptide probe 2 × 10−6 M; PBS (0.01 M, pH 7.4), 2 min, excitation 520 nm; double reciprocal linear fitting"}, "[5]": {"format": "binding", "parameters": "unit not given here", "conditions": "CNTs (1–8 µg mL−1); peptide probe 2 × 10−6 M; PBS (0.01 M, pH 7.4), 2 min, excitation 520 nm; double reciprocal linear fitting"}, "[6]": {"tested_on": "RBDs from the S-proteins of the five VOCs", "test": "Differential sensing of RBDs with S1-S20 (fluorescence, PCA, loading plots)", "format": "binding, SARS-CoV-2", "conditions": "PCA and loading plots"}, "[7]": {"tested_on": "RBDs", "format": "binding, SARS-CoV-2", "conditions": "peptide-GO complexes; RBDs 0 to 12 μg mL-1; PBS (0.01 M, pH 7.40); excitation 520 nm"}},
  "note": "Read-outs that look alike come from different tables or passages of the source. Ends that are not written are not given here.",
  "data": [
    {"substance": "GI7: heptamer (residues 352–358) from the β3 and β4-sheet of hACE2 (GKGDFRI; UniProt Q9BYF1 352-358, looked up, fragment)", "values": [
      {"measurement": "secondary structure (CD spectra)", "setting": "[1]", "value": "no typical signature of secondary structures"}
    ]},
    {"substance": "LL7: heptamer (residues 79–85) from α2-helix of hACE2 (LAQMYPL; UniProt Q9BYF1 79-85, looked up, fragment)", "values": [
      {"measurement": "secondary structure (CD spectra)", "setting": "[1]", "value": "no typical signature of secondary structures"}
    ]},
    {"substance": "QQ19: continuous 19-mer (amino-acid residues 24–42) truncated from the α1-helix of hACE2 (QAKTFLDKFNHEAEDLFYQ; UniProt Q9BYF1 24-42, looked up, fragment)", "values": [
      {"measurement": "secondary structure (CD spectra)", "setting": "[1]", "value": "two minima at 202 and 222 nm, characteristic of α-helices"}
    ]},
    {"substance": "TI7: fluorescently tagged (5-TAMRA) peptide probe, presumably of GI7 (GKGDFRI; also: 5-TAMRA label, site not given here; UniProt Q9BYF1 352-358, looked up, fragment)", "values": [
      {"measurement": "binding constant (Ka)", "setting": "[2]", "value": 0.0153},
      {"measurement": "binding constant (Ka)", "setting": "[3]", "value": 0.0273},
      {"measurement": "binding constant (Ka)", "setting": "[4]", "value": 0.1024},
      {"measurement": "binding constant (Ka)", "setting": "[5]", "value": 0.1462},
      {"measurement": "contribution of peptide probes for VOC classification (order, loading plots)", "setting": "[6]", "value": "TI26 > TQ26 > TQ19 > TL7 > TI7"},
      {"measurement": "sensitivity of the peptide probes for the RBDs (order, from detection limits)", "setting": "[7]", "value": "TI26 > TQ26 > TQ19 > TL7 > TI7"}
    ]},
    {"substance": "TL7: fluorescently tagged (5-TAMRA) peptide probe, presumably of LL7 (LAQMYPL; also: 5-TAMRA label, site not given here; UniProt Q9BYF1 79-85, looked up, fragment)", "values": [
      {"measurement": "binding constant (Ka)", "setting": "[2]", "value": 0.0249},
      {"measurement": "binding constant (Ka)", "setting": "[3]", "value": 0.0319},
      {"measurement": "binding constant (Ka)", "setting": "[4]", "value": 0.0096},
      {"measurement": "binding constant (Ka)", "setting": "[5]", "value": 0.0776},
      {"measurement": "contribution of peptide probes for VOC classification (order, loading plots)", "setting": "[6]", "value": "TI26 > TQ26 > TQ19 > TL7 > TI7"},
      {"measurement": "sensitivity of the peptide probes for the RBDs (order, from detection limits)", "setting": "[7]", "value": "TI26 > TQ26 > TQ19 > TL7 > TI7"}
    ]},
    {"substance": "TQ19: fluorescently tagged (5-TAMRA) peptide probe, presumably of QQ19 (QAKTFLDKFNHEAEDLFYQ; also: 5-TAMRA label, site not given here; UniProt Q9BYF1 24-42, looked up, fragment)", "values": [
      {"measurement": "contribution of peptide probes for VOC classification (order, loading plots)", "setting": "[6]", "value": "TI26 > TQ26 > TQ19 > TL7 > TI7"},
      {"measurement": "sensitivity of the peptide probes for the RBDs (order, from detection limits)", "setting": "[7]", "value": "TI26 > TQ26 > TQ19 > TL7 > TI7"}
    ]}
  ]
}
